Assay results as given in PubChem BioAssay (NCI).
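Where inhibition never reached the appropriate level, the endpoint shown equals the highest concentration tested. Otherwise, values were interpolated linearly from a five-concentration, 48-hour dose response in 96-well plates. The concentration for 50% growth inhibition is given as GI50. TGI: concentration producing complete growth inhibition.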

Legend:
Assay in all cases: NCI tumour cell line growth inhibition, 48 h
[1] = test system: CAKI-1 renal
[2] = test system: CCRF-CEM leukemia
[3] = test system: HCT-15 colon
[4] = test system: NCI-H226 lung
[5] = test system: OVCAR-3 ovarian
[6] = test system: RXF 393 renal
[7] = test system: SF-539 CNS
[8] = test system: SNB-19 CNS
[9] = test system: IGROV1 ovarian
[10] = test system: SNB-75 CNS

Structure (SMILES) | TGI [1] | TGI [2] | TGI [3] | TGI [4] | TGI [5] | TGI [6] | TGI [7] | TGI [8] | TGI [9] | TGI [10] | GI50 [1] | GI50 [2] | GI50 [9] | GI50 [4] | GI50 [5] | GI50 [6] | GI50 [7] | GI50 [8] | GI50 [3] | GI50 [10]
O=[N+]([O-])c1cc2c([N+](=O)[O-])cccc2o1 | 5.77 µM | 5.05 µM | 23 µM | 30.4 µM | 21.8 µM | 20 µM | 6.67 µM | 36 µM | – | – | – | – | – | – | – | – | – | – | – | –
CCOC(=O)CNc1nnnn1C1OC(CO)C(O)C1O (stereo unspecified) | > 100 µM | > 100 µM | > 100 µM | > 100 µM | > 100 µM | > 100 µM | > 100 µM | – | > 100 µM | > 100 µM | – | – | – | – | – | – | – | – | – | –
C=C(CCCO)[C@@H]1CC[C@@](C)(O)[C@H]1C | > 100 µM | – | > 100 µM | > 100 µM | > 100 µM | > 100 µM | > 100 µM | > 100 µM | > 100 µM | > 100 µM | – | – | – | – | – | – | – | – | – | –
COc1cc(/C=C2\C[C@H]3[C@@H]4CC=C5C[C@@H](OC(C)=O)CC[C@]5(C)[C@H]4CC[C@]3(C)[C@H]2OC(C)=O)ccc1OCCN1CCCC1 | 25.6 µM | 18.8 µM | – | 18.6 µM | 23.6 µM | 30.8 µM | 17.3 µM | 22.5 µM | > 50 µM | – | 12 µM | 0.935 µM | 19.3 µM | 9.67 µM | 10.9 µM | 14.6 µM | 8.7 µM | 10.9 µM | – | –
CCN(CC)CCNc1ccc2nc(C)n3c4ccc(O)cc4c(=O)c1c23 | 3.6 µM | – | 5.83 µM | 2.13 µM | 17.1 µM | – | 16.2 µM | 3.26 µM | 15.5 µM | 14.7 µM | – | – | – | – | – | – | – | – | – | –
Cc1ccc2nc(NC(=O)/C(=N\NC(=S)NN)C3C(=O)NC(=S)NC3=O)sc2c1 | > 100 µM | > 100 µM | > 100 µM | > 100 µM | – | > 100 µM | > 100 µM | > 100 µM | > 100 µM | > 100 µM | – | – | – | – | – | – | – | – | – | –
COc1cccc(Nc2nccc(-c3cnn4ncccc34)n2)c1 | 3.77 µM | – | > 25 µM | 0.18 µM | – | 0.108 µM | 0.143 µM | > 25 µM | > 25 µM | 0.122 µM | 0.0573 µM | 0.0723 µM | 0.101 µM | 0.0546 µM | – | 0.0449 µM | 0.0502 µM | 0.0833 µM | 0.0697 µM | 0.0463 µM
Cn1cnc([N+](=O)[O-])c1Sc1nccc(=O)[nH]1 | > 100 µM | > 100 µM | – | > 100 µM | > 100 µM | – | > 100 µM | > 100 µM | > 100 µM | > 100 µM | – | – | – | – | – | – | – | – | – | –
C=C1C(=O)O[C@H]2[C@H]1CC/C(COC(=O)NCCCCCCCCNC(=O)OC/C1=C/CC[C@@]3(C)O[C@H]3[C@H]3OC(=O)C(=C)[C@@H]3CC1)=C\CC[C@@]1(C)O[C@@H]21 | 2.02 µM | 0.837 µM | 1.41 µM | 4.39 µM | 1.06 µM | 0.322 µM | 0.599 µM | – | 2.61 µM | 3.5 µM | 0.657 µM | 0.255 µM | 1.01 µM | 1.81 µM | 0.33 µM | 0.162 µM | 0.235 µM | – | 0.346 µM | 1.25 µM
Cc1ccc(NC(=O)OCC(COc2ccc(Cl)cc2Cl)OC(=O)Nc2ccc(C)cc2)cc1 (stereo unspecified) | > 100 µM | – | > 100 µM | > 100 µM | > 100 µM | > 100 µM | > 100 µM | > 100 µM | > 100 µM | 68.2 µM | – | – | – | – | – | – | – | – | – | –
